Reference: publication PMC7531004, “Discovery of gramicidin A analogues with altered activities by multidimensional screening of a one-bead-one-compound library” (Nature Communications, 2020)
Where a SMILES comes first, the peptide text is derived from it. [ ]: non-standard residue; d: D form. The star is where a group is joined. NHCH2CH2OH = OCCN*; For = O=C*

Columns and labels:
[1] = tested on: P388 mouse leukemia cells; details: 92 h
Method in brief: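 Peptide stocks diluted 250× in growth medium; P388 cells 1 × 10^4 cells/mL final; 37 °C, 5% CO2, 92 h. WST-1 + 1-methoxy PMS, 4 h, A415. Output: % viability.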

[2] = H+/Na+ transport assay of bead-derived peptides (one-point); format: biochemical; design: key: relative activity; mean of two control wells = 1.00; details: bead-derived peptide solution, EYPC/EYPG LUVs;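 also: relative to parent gramicidin A activity set to 1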
Method in brief: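 Miniaturized 96-well format. LUVs with entrapped pyranine (1.0 mM) were exposed to peptide for 30 min at RT. Intensities were expressed relative to full lysis by Triton X-100 and no treatment, with control-well mean = 1.00.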

[3] = tested on: Streptococcus pyogenes SSI-9; assay: Antibacterial activity assay of bead-derived peptides (three concentrations); format: cell-based; design: key: +++: inhibition by the 640-fold diluted peptide solution; ++: inhibition by the 160-fold diluted solution; +: inhibition by the 40-fold diluted solution; -: no inhibition; details: S. pyogenes, bead-derived peptide solution, three concentrations
Method in brief: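 First, each peptide stock was diluted 4- and 16-fold in DMSO; next, the three solutions were mixed with S. pyogenes SSI-9 suspension (2 × 10^5 CFU) in cation-adjusted Mueller Hinton Broth plus 5% laked horse blood; finally, plates stood 18 h at 37 °C before checking for grown-cell precipitation.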

| SMILES | cell viability/% [1] [%] | H+/Na+ transport activity normalized against the value of 1 (1.00) [2] | antibacterial activity [3] |
| --- | --- | --- | --- |
| CC(C)C[C@@H](NC(=O)[C@H](Cc1c[nH]c2ccccc12)NC(=O)[C@H](NC(=O)[C@H](Cc1c[nH]c2ccccc12)NC(=O)[C@@H](CC(C)C)NC(=O)[C@@H](NC(=O)[C@H](NC(=O)[C@H](C)NC(=O)[C@H](NC(=O)[C@H](C)NC(=O)CNC(=O)[C@@H](NC=O)C(C)C)C(C)C)C(C)C)C(C)C)C(C)C)C(=O)N[C@@H](Cc1c[nH]c2ccccc12)C(=O)N[C@@H](C(=O)N[C@@H](Cc1c[nH]c2ccccc12)C(=O)NCCO)C(C)C [compound 5526] (For-VGA[dV]A[dV]V[dL]W[dV]W[dL]W[dV]W-NHCH2CH2OH) | 100.0 | 1.17 | + |
| CNC(=O)C[C@@H](NC(=O)[C@H](Cc1c[nH]c2ccccc12)NC(=O)[C@@H](CC(C)C)NC(=O)[C@H](Cc1c[nH]c2ccccc12)NC(=O)[C@H](NC(=O)[C@H](Cc1c[nH]c2ccccc12)NC(=O)[C@@H](CC(C)C)NC(=O)[C@@H](NC(=O)[C@H](NC(=O)[C@H](C)NC(=O)[C@H](NC(=O)[C@H](C)NC(=O)CNC(=O)[C@@H](NC=O)C(C)C)C(C)C)C(C)C)C(C)C)C(C)C)C(=O)N[C@@H](Cc1c[nH]c2ccccc12)C(=O)NCCO [compound 5538] (For-VGA[dV]A[dV]V[dL]W[dV]W[dL]W[dD](NHMe)W-NHCH2CH2OH) | 100.0 | 1.06 | - |
| CC(C)C[C@@H](NC(=O)[C@H](Cc1c[nH]c2ccccc12)NC(=O)[C@H](NC(=O)[C@@H](NC(=O)[C@H](NC(=O)[C@H](C)NC(=O)[C@H](NC(=O)[C@H](C)NC(=O)CNC(=O)[C@@H](NC=O)C(C)C)C(C)C)C(C)C)C(C)C)C(C)C)C(=O)N[C@@H](Cc1c[nH]c2ccccc12)C(=O)N[C@@H](C(=O)N[C@@H](Cc1c[nH]c2ccccc12)C(=O)N[C@@H](C(=O)N[C@@H](Cc1c[nH]c2ccccc12)C(=O)NCCO)C(C)C)C(C)C [compound 5570] (For-VGA[dV]A[dV]V[dV]W[dL]W[dV]W[dV]W-NHCH2CH2OH) | 96.8 | 1.26 | ++ |
| CNC(=O)C[C@@H](NC(=O)[C@H](Cc1c[nH]c2ccccc12)NC(=O)[C@H](NC(=O)[C@H](Cc1c[nH]c2ccccc12)NC(=O)[C@H](NC(=O)[C@H](Cc1c[nH]c2ccccc12)NC(=O)[C@@H](CC(C)C)NC(=O)[C@@H](NC(=O)[C@H](NC(=O)[C@H](C)NC(=O)[C@H](NC(=O)[C@H](C)NC(=O)CNC(=O)[C@@H](NC=O)C(C)C)C(C)C)C(C)C)C(C)C)C(C)C)C(C)C)C(=O)N[C@@H](Cc1c[nH]c2ccccc12)C(=O)NCCO [compound 5604] (For-VGA[dV]A[dV]V[dL]W[dV]W[dV]W[dD](NHMe)W-NHCH2CH2OH) | 69.7 | 1.03 | - |
| CC(C)C[C@@H](NC(=O)[C@H](C)NC(=O)CNC(=O)[C@@H](NC=O)C(C)C)C(=O)N[C@@H](C)C(=O)N[C@H](CC(C)C)C(=O)N[C@H](C(=O)N[C@H](CC(C)C)C(=O)N[C@@H](Cc1c[nH]c2ccccc12)C(=O)N[C@@H](C(=O)N[C@@H](Cc1c[nH]c2ccccc12)C(=O)N[C@@H](C(=O)N[C@@H](Cc1c[nH]c2ccccc12)C(=O)N[C@@H](C(=O)N[C@@H](Cc1c[nH]c2ccccc12)C(=O)NCCO)C(C)C)C(C)C)C(C)C)C(C)C [compound 5611] (For-VGA[dL]A[dL]V[dL]W[dV]W[dV]W[dV]W-NHCH2CH2OH) | 3.9 | 1.17 | + |
| CC(C)C[C@@H](NC(=O)[C@@H](NC(=O)[C@H](NC(=O)[C@H](C)NC(=O)[C@H](NC(=O)[C@H](C)NC(=O)CNC(=O)[C@@H](NC=O)C(C)C)[C@H](C)O)C(C)C)C(C)C)C(=O)N[C@@H](Cc1c[nH]c2ccccc12)C(=O)N[C@@H](C(=O)N[C@@H](Cc1c[nH]c2ccccc12)C(=O)N[C@@H](C(=O)N[C@@H](Cc1c[nH]c2ccccc12)C(=O)N[C@@H](C(=O)N[C@@H](Cc1c[nH]c2ccccc12)C(=O)NCCO)C(C)C)C(C)C)C(C)C [compound 5623] (For-VGA[dT]A[dV]V[dL]W[dV]W[dV]W[dV]W-NHCH2CH2OH) | 80.0 | 1.11 | - |
| CC(C)C[C@@H](NC(=O)[C@H](Cc1c[nH]c2ccccc12)NC(=O)[C@H](NC(=O)[C@H](Cc1c[nH]c2ccccc12)NC(=O)[C@H](NC(=O)[C@@H](NC(=O)[C@H](NC(=O)[C@H](C)NC(=O)[C@H](NC(=O)[C@H](C)NC(=O)CNC(=O)[C@@H](NC=O)C(C)C)C(C)C)C(C)C)C(C)C)C(C)C)C(C)C)C(=O)N[C@@H](Cc1c[nH]c2ccccc12)C(=O)N[C@@H](C(=O)N[C@@H](Cc1c[nH]c2ccccc12)C(=O)NCCO)C(C)C [compound 5678] (For-VGA[dV]A[dV]V[dV]W[dV]W[dL]W[dV]W-NHCH2CH2OH) | 93.2 | 1.11 | ++ |
| CC(C)C[C@@H](NC(=O)[C@H](C)NC(=O)CNC(=O)[C@@H](NC=O)C(C)C)C(=O)N[C@@H](C)C(=O)N[C@H](CC(C)C)C(=O)N[C@H](C(=O)N[C@H](CC(C)C)C(=O)N[C@@H](Cc1c[nH]c2ccccc12)C(=O)N[C@@H](C(=O)N[C@@H](Cc1c[nH]c2ccccc12)C(=O)N[C@@H](C(=O)N[C@@H](Cc1c[nH]c2ccccc12)C(=O)N[C@@H](C(=O)N[C@@H](Cc1c[nH]c2ccccc12)C(=O)NCCO)C(C)C)C(C)C)[C@H](C)O)C(C)C [compound 5679] (For-VGA[dL]A[dL]V[dL]W[dT]W[dV]W[dV]W-NHCH2CH2OH) | 90.5 | 1.06 | - |
| CC(C)C[C@@H](NC(=O)[C@H](C)NC(=O)[C@H](NC(=O)[C@H](C)NC(=O)CNC(=O)[C@@H](NC=O)C(C)C)C(C)C)C(=O)N[C@H](C(=O)N[C@H](CC(C)C)C(=O)N[C@@H](Cc1c[nH]c2ccccc12)C(=O)N[C@@H](C(=O)N[C@@H](Cc1c[nH]c2ccccc12)C(=O)N[C@H](CC(C)C)C(=O)N[C@@H](Cc1c[nH]c2ccccc12)C(=O)N[C@H](CC(C)C)C(=O)N[C@@H](Cc1c[nH]c2ccccc12)C(=O)NCCO)C(C)C)C(C)C [compound 5699] (For-VGA[dV]A[dL]V[dL]W[dV]W[dL]W[dL]W-NHCH2CH2OH) | 36.7 | 1.05 | + |
| CNC(=O)C[C@@H](NC(=O)[C@@H](NC(=O)[C@@H](CC(C)C)NC(=O)[C@H](C)NC(=O)[C@@H](CC(C)C)NC(=O)[C@H](C)NC(=O)CNC(=O)[C@@H](NC=O)C(C)C)C(C)C)C(=O)N[C@@H](Cc1c[nH]c2ccccc12)C(=O)N[C@H](CC(C)C)C(=O)N[C@@H](Cc1c[nH]c2ccccc12)C(=O)N[C@H](CC(C)C)C(=O)N[C@@H](Cc1c[nH]c2ccccc12)C(=O)N[C@@H](C(=O)N[C@@H](Cc1c[nH]c2ccccc12)C(=O)NCCO)[C@H](C)O [compound 5746] (For-VGA[dL]A[dL]V[dD](NHMe)W[dL]W[dL]W[dT]W-NHCH2CH2OH) | 100.0 | 1.26 | - |
| CNC(=O)C[C@@H](NC(=O)[C@@H](NC(=O)[C@H](NC(=O)[C@H](C)NC(=O)[C@H](NC(=O)[C@H](C)NC(=O)CNC(=O)[C@@H](NC=O)C(C)C)C(C)C)C(C)C)C(C)C)C(=O)N[C@@H](Cc1c[nH]c2ccccc12)C(=O)N[C@H](CC(C)C)C(=O)N[C@@H](Cc1c[nH]c2ccccc12)C(=O)N[C@H](CC(C)C)C(=O)N[C@@H](Cc1c[nH]c2ccccc12)C(=O)N[C@@H](C(=O)N[C@@H](Cc1c[nH]c2ccccc12)C(=O)NCCO)C(C)C [compound 5771] (For-VGA[dV]A[dV]V[dD](NHMe)W[dL]W[dL]W[dV]W-NHCH2CH2OH) | 79.3 | 1.46 | - |
| CNC(=O)C[C@@H](NC(=O)[C@@H](NC(=O)[C@H](NC(=O)[C@H](C)NC(=O)[C@@H](CC(C)C)NC(=O)[C@H](C)NC(=O)CNC(=O)[C@@H](NC=O)C(C)C)C(C)C)C(C)C)C(=O)N[C@@H](Cc1c[nH]c2ccccc12)C(=O)N[C@@H](C(=O)N[C@@H](Cc1c[nH]c2ccccc12)C(=O)N[C@H](CC(C)C)C(=O)N[C@@H](Cc1c[nH]c2ccccc12)C(=O)N[C@@H](C(=O)N[C@@H](Cc1c[nH]c2ccccc12)C(=O)NCCO)C(C)C)C(C)C [compound 5778] (For-VGA[dL]A[dV]V[dD](NHMe)W[dV]W[dL]W[dV]W-NHCH2CH2OH) | 77.8 | 1.19 | - |
| CC(C)C[C@@H](NC(=O)[C@H](C)NC(=O)[C@H](NC(=O)[C@H](C)NC(=O)CNC(=O)[C@@H](NC=O)C(C)C)C(C)C)C(=O)N[C@H](C(=O)N[C@@H](C(=O)N[C@@H](Cc1c[nH]c2ccccc12)C(=O)N[C@H](CC(C)C)C(=O)N[C@@H](Cc1c[nH]c2ccccc12)C(=O)N[C@H](CC(C)C)C(=O)N[C@@H](Cc1c[nH]c2ccccc12)C(=O)N[C@@H](C(=O)N[C@@H](Cc1c[nH]c2ccccc12)C(=O)NCCO)C(C)C)C(C)C)C(C)C [compound 5872] (For-VGA[dV]A[dL]V[dV]W[dL]W[dL]W[dV]W-NHCH2CH2OH) | 9.9 | 1.02 | + |
